Drawing on ChEMBL document CHEMBL1138903, “Secondary amides of sulfonylated 3-amidinophenylalanine. New potent and selective inhibitors of matriptase” (J Med Chem, 2006), this text covers Ki for 31 compounds.

Assay [1] deals with Urokinase-type plasminogen activator (Homo sapiens, UniProt P00749). The assay can be described thus: Inhibition of uPA.
The target in another assay is Plasminogen (Homo sapiens, UniProt P00747). The assay can be described thus: Inhibition of plasmin.
In a further assay the target is Prothrombin (Homo sapiens, UniProt P00734). The assay can be described thus: Inhibition of thrombin.
Another assay addresses Coagulation factor X (Homo sapiens, UniProt P00742). Briefly: Inhibition of f10a.
In assay [2] the target is T1, Suppressor of tumorigenicity 14 protein (Homo sapiens, UniProt Q9Y5Y6).
T1 sequence (Q9Y5Y6 whole entry): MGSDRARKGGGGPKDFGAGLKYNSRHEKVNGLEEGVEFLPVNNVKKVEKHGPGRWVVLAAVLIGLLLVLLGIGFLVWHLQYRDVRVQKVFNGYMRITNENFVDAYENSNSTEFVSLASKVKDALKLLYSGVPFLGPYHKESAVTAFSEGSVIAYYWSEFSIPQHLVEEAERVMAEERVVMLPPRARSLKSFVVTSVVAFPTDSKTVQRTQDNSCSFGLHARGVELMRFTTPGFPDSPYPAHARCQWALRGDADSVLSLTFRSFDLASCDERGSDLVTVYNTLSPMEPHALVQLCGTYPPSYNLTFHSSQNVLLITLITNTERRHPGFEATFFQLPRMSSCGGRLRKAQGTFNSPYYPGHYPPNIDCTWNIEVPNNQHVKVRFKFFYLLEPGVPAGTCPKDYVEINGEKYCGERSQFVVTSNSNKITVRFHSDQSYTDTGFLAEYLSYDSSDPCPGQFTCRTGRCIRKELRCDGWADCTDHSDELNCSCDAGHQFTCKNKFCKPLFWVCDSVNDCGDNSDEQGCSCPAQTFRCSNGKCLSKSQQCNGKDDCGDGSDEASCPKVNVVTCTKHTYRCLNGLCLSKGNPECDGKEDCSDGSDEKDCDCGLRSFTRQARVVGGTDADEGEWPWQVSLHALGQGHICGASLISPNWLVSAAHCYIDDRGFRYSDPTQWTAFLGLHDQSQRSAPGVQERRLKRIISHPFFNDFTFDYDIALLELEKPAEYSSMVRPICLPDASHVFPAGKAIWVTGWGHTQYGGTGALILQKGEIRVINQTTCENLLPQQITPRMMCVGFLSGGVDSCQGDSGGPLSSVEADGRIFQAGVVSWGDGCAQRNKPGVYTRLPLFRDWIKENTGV

Coagulation factor X, sequence (P00742 41-179 limits assumed): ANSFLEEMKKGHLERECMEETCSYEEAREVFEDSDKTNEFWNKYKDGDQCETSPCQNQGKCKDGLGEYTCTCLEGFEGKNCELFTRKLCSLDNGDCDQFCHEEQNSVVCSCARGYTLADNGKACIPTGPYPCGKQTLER
Coagulation factor X, sequence (P00742 235-488 limits assumed): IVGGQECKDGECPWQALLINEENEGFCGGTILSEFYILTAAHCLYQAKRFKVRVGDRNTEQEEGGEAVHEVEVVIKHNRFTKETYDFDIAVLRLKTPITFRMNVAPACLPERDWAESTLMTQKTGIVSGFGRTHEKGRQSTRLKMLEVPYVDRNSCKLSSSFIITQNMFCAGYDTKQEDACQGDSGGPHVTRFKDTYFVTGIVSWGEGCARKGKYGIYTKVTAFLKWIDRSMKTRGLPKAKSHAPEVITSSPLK
Plasminogen, sequence (P00747 97-580 limits assumed): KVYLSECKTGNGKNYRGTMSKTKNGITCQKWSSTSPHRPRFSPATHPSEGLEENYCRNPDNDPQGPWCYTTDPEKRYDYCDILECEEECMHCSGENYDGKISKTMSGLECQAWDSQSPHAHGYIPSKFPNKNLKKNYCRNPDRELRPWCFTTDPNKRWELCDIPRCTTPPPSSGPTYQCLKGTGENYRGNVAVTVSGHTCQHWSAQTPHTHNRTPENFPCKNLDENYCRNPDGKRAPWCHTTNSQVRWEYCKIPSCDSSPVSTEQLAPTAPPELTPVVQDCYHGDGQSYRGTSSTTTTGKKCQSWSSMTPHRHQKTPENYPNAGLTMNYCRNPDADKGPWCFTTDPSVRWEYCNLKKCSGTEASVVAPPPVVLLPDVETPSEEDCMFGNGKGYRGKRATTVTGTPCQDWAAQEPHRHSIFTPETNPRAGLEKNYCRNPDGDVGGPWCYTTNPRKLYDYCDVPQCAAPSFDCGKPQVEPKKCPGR
Plasminogen, sequence (P00747 581-810 limits assumed): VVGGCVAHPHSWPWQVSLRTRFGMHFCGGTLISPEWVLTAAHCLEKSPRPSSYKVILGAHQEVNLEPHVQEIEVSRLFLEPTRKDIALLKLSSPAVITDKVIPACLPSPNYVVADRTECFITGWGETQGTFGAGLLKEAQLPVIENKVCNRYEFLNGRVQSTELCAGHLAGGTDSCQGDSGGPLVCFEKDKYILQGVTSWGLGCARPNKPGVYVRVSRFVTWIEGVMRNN

For the compound `N=C(N)c1cccc(C[C@H](NS(=O)(=O)CCc2cccc3ccccc23)C(=O)N2CCN(C(=O)CCN=C(N)N)CC2)c1`, the Ki in assay [1] amounted to 56000 nM; at Plasminogen it was 4200 nM; at Prothrombin, 1500 nM; on Coagulation factor X it was 80000 nM; in assay [2] it was 690 nM.
Taken in the same sequence, the figures for `CC(C)c1cc(C(C)C)c(S(=O)(=O)NC(Cc2cccc(C(=N)N)c2)C(=O)N2CCN(C(=O)CN=C(N)N)CC2)c(C(C)C)c1` (racemic) were 1500 nM, 820 nM, 1200 nM, 9000 nM and 330 nM.
Turning to `Cc1ccc(S(=O)(=O)NC(Cc2cccc(C(=N)N)c2)C(=O)N2CCCCC2)cc1` (configuration not stated), the Ki in assay [2] worked out at 14000 nM.
For the compound `N=C(N)NCCC(=O)N1CCN(C(=O)[C@H](Cc2cccc(C(=N)N)c2)NS(=O)(=O)c2cccc3ccccc23)CC1`, the inhibition constant Ki in assay [1] is 19000 nM; on Plasminogen it was 3700 nM; at Prothrombin, 2500 nM; at Coagulation factor X it was 5100 nM; in assay [2], 340 nM.
The corresponding values for `CC(C)c1cc(C(C)C)c(S(=O)(=O)N[C@@H](Cc2cccc(C(=N)N)c2)C(=O)N2CCC(CCN=C(N)N)CC2)c(C(C)C)c1` are 320 nM, 1000 nM, 300 nM, 3200 nM and 89 nM.
Turning to `N=C(N)c1cccc(C[C@H](NS(=O)(=O)c2cccc(NC(=O)CCN)c2)C(=O)N2CCC(CCCN)CC2)c1`, the Ki was 1500 nM in assay [1]; 2700 nM on Plasminogen; 13000 nM on Prothrombin; 15000 nM on Coagulation factor X; 5 nM in assay [2].
`N=C(N)c1cccc(C[C@H](NS(=O)(=O)c2ccc3ccccc3c2)C(=O)N2CCC(C3CCNCC3)CC2)c1`: the inhibitory constant (Ki) in assay [1] came to 2200 nM; on Plasminogen, 210 nM; on Prothrombin, 12000 nM; at Coagulation factor X, 24000 nM.
Turning to `CC(C)c1cc(C(C)C)c(S(=O)(=O)N[C@@H](Cc2cccc(C(=N)N)c2)C(=O)N2CCN(C(=O)C3CCN(C(=N)N)CC3)CC2)c(C(C)C)c1`, the Ki in assay [1] came to 1100 nM; on Plasminogen, 600 nM; at Prothrombin, 5000 nM; on Coagulation factor X it was 10000 nM.
In the case of `N=C(N)c1cccc(C[C@H](NS(=O)(=O)c2ccc3c(c2)C(=O)c2ccccc2C3=O)C(=O)N2CCC(C(=O)NCCN)CC2)c1`, the Ki stood at 7700 nM in assay [1]; 3100 nM at Plasminogen; 420 nM at Prothrombin; 4000 nM at Coagulation factor X; 21 nM in assay [2].
The corresponding values for `N=C(N)NCCC(=O)N1CCN(C(=O)[C@H](Cc2cccc(C(=N)N)c2)NS(=O)(=O)c2ccc(-c3ccccc3)cc2)CC1` are 4000 nM, 3100 nM, 580 nM, 10000 nM and 250 nM.
For `CC(C)c1cc(C(C)C)c(S(=O)(=O)N[C@@H](Cc2cccc(C(=N)N)c2)C(=O)N2CCCN(C(=O)C3CCN(C(=N)N)CC3)CC2)c(C(C)C)c1`, the inhibitory constant (Ki) turned out to be 4600 nM in assay [1]; 330 nM on Plasminogen; 2500 nM at Prothrombin; 4100 nM on Coagulation factor X; 50 nM in assay [2].
The corresponding values for `CC(C)c1cc(C(C)C)c(S(=O)(=O)N[C@@H](Cc2cccc(C(=N)N)c2)C(=O)N2CCC(C(=O)NCCN=C(N)N)CC2)c(C(C)C)c1` are 620 nM, 1800 nM, 20000 nM, 5000 nM and 140 nM.
Taken in the same sequence, the figures for `N=C(N)NCCC(=O)N1CCN(C(=O)[C@H](Cc2cccc(C(=N)N)c2)NS(=O)(=O)c2ccc3c(c2)C(=O)c2ccccc2C3=O)CC1` were 26000 nM, 7200 nM, 1800 nM, 2800 nM and 53 nM.
Turning to `N=C(N)c1cccc(C[C@H](NS(=O)(=O)c2ccc3ccccc3c2)C(=O)N2CCC(C3CCN(C(=N)N)CC3)CC2)c1`, the inhibitory constant (Ki) in assay [1] was found to be 1300 nM; on Plasminogen it was 1400 nM; at Prothrombin it was 1800 nM; at Coagulation factor X, 25000 nM.
Taken in the same sequence, the figures for `CC(C)c1cc(C(C)C)c(S(=O)(=O)N[C@@H](Cc2cccc(C(=N)N)c2)C(=O)N2CCN(C(=N)N)CC2)c(C(C)C)c1` were 1600 nM, 1800 nM, 13000 nM and 3700 nM.
Take `CC(C)c1cc(C(C)C)c(S(=O)(=O)N[C@@H](Cc2cccc(C(=N)N)c2)C(=O)N2CCN(C(=O)CCCN)CC2)c(C(C)C)c1`: the Ki was 1100 nM in assay [1]; 640 nM on Plasminogen; 9400 nM at Prothrombin; 13000 nM at Coagulation factor X; 140 nM in assay [2].
For the compound `CC(C)c1cc(C(C)C)c(S(=O)(=O)N[C@@H](Cc2cccc(C(=N)N)c2)C(=O)N2CCN(C(=O)CCN)CC2)c(C(C)C)c1`, the inhibitory constant (Ki) stood at 440 nM at Plasminogen, 3300 nM on Prothrombin and 15000 nM at Coagulation factor X.
As to `N=C(N)NCCCC1CCN(C(=O)[C@H](Cc2cccc(C(=N)N)c2)NS(=O)(=O)c2ccc3ccccc3c2)CC1`, the inhibition constant (Ki) in assay [1] is 2100 nM; on Plasminogen, 1200 nM; at Prothrombin it was 170 nM; on Coagulation factor X, 34000 nM; in assay [2] it was 42 nM.
Regarding `CC(C)c1cc(C(C)C)c(S(=O)(=O)N[C@@H](Cc2cccc(C(=N)N)c2)C(=O)N2CCCN(C(=O)CCN)CC2)c(C(C)C)c1`, the Ki was determined as 1200 nM in assay [1], 360 nM on Plasminogen, 490 nM at Prothrombin and 5300 nM on Coagulation factor X.
The corresponding values for `N=C(N)c1cccc(C[C@H](NS(=O)(=O)c2ccc3ccccc3c2)C(=O)N2CCC(CCN)CC2)c1` are 2300 nM, 1400 nM, 210 nM and 76000 nM.
Taken in the same sequence, the figures for `CC(C)c1cc(C(C)C)c(S(=O)(=O)N[C@@H](Cc2cccc(C(=N)N)c2)C(=O)N2CCN(C(=O)C3CCNCC3)CC2)c(C(C)C)c1` were 1200 nM, 1300 nM, 5400 nM and 17000 nM.
With `N=C(N)c1cccc(C[C@H](NS(=O)(=O)c2ccc(NC(=O)CCN)cc2)C(=O)N2CCC(CCN)CC2)c1`, the Ki turned out to be 820 nM in assay [1]; 1200 nM at Plasminogen; 8800 nM on Prothrombin; 15000 nM at Coagulation factor X; 28 nM in assay [2].
In the case of `CC(C)c1cc(C(C)C)c(S(=O)(=O)NC(Cc2cccc(C(=N)N)c2)C(=O)N2CCN(C(=O)CCN=C(N)N)CC2)c(C(C)C)c1` (configuration not stated), the inhibitory constant (Ki) in assay [2] turned out to be 82 nM.
For `N=C(N)c1cccc(C[C@H](NS(=O)(=O)c2ccc(C3CCCCC3)cc2)C(=O)N2CCNCC2)c1`, the inhibition constant (Ki) in assay [1] was 6600 nM; at Plasminogen, 2800 nM; on Prothrombin, 170 nM; at Coagulation factor X, 1100 nM.
As for `CCOC(=O)N1CCN(C(=O)[C@H](Cc2cccc(C(=N)N)c2)NS(=O)(=O)c2c(C(C)C)cc(C(C)C)cc2C(C)C)CC1`, the Ki on Coagulation factor X amounted to 1700 nM.
As for `N=C(N)c1cccc(C[C@H](NS(=O)(=O)c2cccc(NC(=O)CN)c2)C(=O)N2CCC(CCN)CC2)c1`, the inhibition constant Ki turned out to be 11000 nM in assay [1], 4500 nM on Plasminogen, 7000 nM at Prothrombin and 35000 nM at Coagulation factor X.
The corresponding values for `N=C(N)NCCC(=O)N1CCN(C(=O)[C@H](Cc2cccc(C(=N)N)c2)NS(=O)(=O)c2ccc3cc4ccccc4cc3c2)CC1` are 6100 nM, 3200 nM, 460 nM and 4600 nM.
The corresponding values for `CC(C)c1cc(C(C)C)c(S(=O)(=O)N[C@@H](Cc2cccc(C(=N)N)c2)C(=O)N2CCCN(C(=O)C3CCNCC3)CC2)c(C(C)C)c1` are 2500 nM, 260 nM, 5000 nM and 5800 nM.
The corresponding values for `N=C(N)c1cccc(C[C@H](NS(=O)(=O)c2ccc(-c3ccccc3)cc2)C(=O)N2CCN(C(=O)C3CCN(C(=N)N)CC3)CC2)c1` are 12000 nM, 1400 nM, 1300 nM and 2800 nM.
Take `N=C(N)c1cccc(C[C@H](NS(=O)(=O)c2cccc(NC(=O)CCCN)c2)C(=O)N2CCC(CCN)CC2)c1`: the Ki worked out at 8000 nM in assay [1], 2500 nM at Plasminogen, 21000 nM at Prothrombin and 23000 nM on Coagulation factor X.
The corresponding values for `CCC(=O)N1CCN(C(=O)[C@H](Cc2cccc(C(=N)N)c2)NS(=O)(=O)c2ccc3c(c2)C(=O)c2ccccc2C3=O)CC1` are 31000 nM, 6000 nM, 54 nM and 1300 nM.

One may read the Ki as a dissociation constant, usually derived from enzyme kinetics or from competition with a known ligand. A lower Ki goes with a stronger hold on the target.
